Experimental data from ChEMBL document CHEMBL1121625, “Crystal structures of calcium channel antagonists: 2,6-dimethyl-3,5-dicarbomethoxy-4-[2-nitro-, 3-cyano-, 4-(dimethylamino)-, and 2,3,4,5,6-pentafluorophenyl]-1,4-dihydropyridine” (1980).

Organism: Cavia porcellus
Assay: The compound was tested for inhibition of muscarinic responses in guinea pig ileal longitudinal smooth muscle
Format: functional, Muscle tissue

SMILES	ID50 [nM]
COC(=O)C1=C(C)N=C(C)/C(=C(\O)OC)C1c1cccc(C#N)c1 (centres undefined)	300
COC(=O)C1=C(C)NC(C)=C(C(=O)OC)C1c1ccccc1[N+](=O)[O-] [NIFEDIPINE]	5.1
COC(=O)C1=C(C)N=C(C)/C(=C(\O)OC)C1c1c(F)c(F)c(F)c(F)c1F (centres undefined)	0.9
COC(=O)C1=C(C)NC(C)=C(C(=O)OC)C1c1ccc(N(C)C)cc1	50000
